Non-standard residues stand in square brackets, D forms with d. No end group written: not given here.
What was measured:
[1] = tested on: plasma lipids, adipokines and cytokines; assay: Plasma lipids, adipokines and cytokines in WD-fed apoE−/− mice; format: in vivo; conditions: for Plasma levels of glycine-containing tripeptide molecule, lower by: 12 weeks, glycine 0.67, DT-109/DT-110 1 mg/g; for Plasma levels of glycine-containing tripeptide molecule, lower by / Endpoint plasma HDL / Endpoint plasma LDL, reduced by / Endpoint plasma TC, reduced by: vs WD+H2O; for Time-dependent increase in plasma TC (baseline to endpoint): 1 week WD baseline vs 12 weeks of treatment; for Endpoint plasma HDL / Endpoint plasma LDL, reduced by / Endpoint plasma TC, reduced by: 6 hour fast; for Plasma HDL (lipid profile): endpoint (FIG. 15I); for Plasma glycine-containing tripeptide molecule: endpoint (FIG. 15K)
Text: (§1) Eight-week-old male apolipoprotein E-deficient (apoE−/−) mice (B6.129P2-Apoetm1Unc/J, Stock No.: 002052) were obtained from Jackson Laboratories. Mice were fed Western diet (WD, 42% of calories from fat and 0.2% cholesterol by weight, Envigo TD.88137). After one week of WD feeding, blood was carefully collected from the facial vein to determine baseline plasma levels of total cholesterol (TC). […] All mice were maintained on a 12-hour light/dark cycle and had ad libitum access to food and water. Body weight and food intake were measured every one and three weeks, respectively
Plasma levels of glycine tripeptide molecule, resistin, interleukin-6 (IL-6) and monocyte chemoattractant protein-1 (MCP1) were measured with a Luminex 200 chemistry analyzer (Luminex Corporation) at the Chemistry Laboratory of the MDRC using manufacturer-provided assay reagents and protocols (Millipore Multiplex, MMHMAG-44K). […]

atherosclerotic lesions = assay: Analysis of atherosclerotic lesions (Oil Red O, en face aorta) in WD-fed apoE−/− mice; format: in vivo; conditions: apoE−/− mice on WD, 12 weeks; vs WD+H2O
Text: as §1
After collection of blood, the mice were perfused with 20 mL of saline solution through the heart, followed by 20 mL of 37% formalin. The mice were fixed with formalin and the whole aortic tree was dissected under a surgical microscope. Next, the aortic trees were stained with Oil Red O solution (0.2% Oil Red O (w/v) in 3.5:1 of methanol:1N NaOH) for 50 min, followed by 70% ethanol for 30 min. Aortic trees were then kept in DDW. The aortic trees were then cleared of adhering adipose and connective tissues, and longitudinally opened with Vannas scissors to expose the atherosclerotic lesions. Images of whole aortic trees were obtained using a digital camera, and the percentage of the plaque area stained by Oil Red O with respect to the total luminal surface area was quantified with ImageJ analysis software (http://imagej.nih.gov/ij/).

hepatic gene expression [2] = assay: qPCR analysis of hepatic gene expression in WD-fed apoE−/− mice; format: in vivo; conditions: for Hepatic expression of CCL2 / Hepatic expression of TNFα / Hepatic expression of key genes regulating FAO (PPARα, PNPLA2, CACT, CPT1a, ACADL): apoE−/− mice on WD, qPCR (FIG. 16D)
Text: as §1
(§2) Total RNA from liver or adipose tissue samples was extracted using QIAGEN's RNeasy kits (QIAGEN). RNA was reverse-transcribed into cDNA with SuperScript III and random primers (Invitrogen). Specific transcript levels were assessed by a real-time PCR system (Bio-Rad) using IQ SYBR Green Supermix (Bio-Rad) and the ΔΔCt threshold cycle method of normalization. Gene expression levels were normalized to glyceraldehyde 3-phosphate dehydrogenase (GAPDH). Primer pairs used for qPCR were obtained from Integrated DNA Technologies and are listed below:
as §2, with “from mouse” for “from”, “liver” for “liver or adipose tissue”, “glycerldehyde” for “glyceraldehyde”, “(GAPDH).” for “(GAPDH). Primer pairs used for qPCR were obtained from Integrated DNA Technologies and are listed below:”

blood glucose = assay: OGTT and non-fasting/endpoint blood glucose in WD-fed apoE−/− mice; format: in vivo; conditions: for Non-fasting blood glucose 30 min post-gavage vs pre-gavage, decreased by: routine oral gavage, glycine 0.67, leucine 0.33, DT-109/DT-110 1 mg/g; for Acute OGTT: blood glucose at later time points (60-120 min) / Acute OGTT: blood glucose 30 min after glucose with treatment: week 10, overnight fast, oral; for Acute OGTT: blood glucose at later time points (60-120 min): glucose 2 mg/g plus treatment; for Endpoint glucose levels, lower by: following a 6 h fast, after 12 weeks, vs WD+H2O; for Acute OGTT: blood glucose 30 min after glucose with treatment: glucose 2 mg/g plus glycine 0.67, leucine 0.33, DT-109 or DT-110 1 mg/g
Text: as §1
At week 10, oral glucose tolerance tests (OGTT) were performed following an overnight fast by administering 2 mg/g of glucose via oral gavage. […] To evaluate the chronic effects of the treatments, mice were administered with glucose alone. […] Then, mice were administered with glucose with (acute) or without (chronic) treatments and blood glucose levels were measured every 30 min for up to 120 min. To assess the effects of the treatments on non-fasting glucose levels, blood was collected from the tip of the tail before routine administration of treatments via oral gavage (pre-gavage) and 30 min afterwards (post-gavage).
OGTT were performed after 12 h fasting.

hepatic gene expression [3] = format: in vivo, mice; conditions: NASH-diet, liver
Procedure: as §2, with “from mouse” for “from”, “liver” for “liver or adipose tissue”, “glycerldehyde” for “glyceraldehyde”, “(GAPDH).” for “(GAPDH). Primer pairs used for qPCR were obtained from Integrated DNA Technologies and are listed below:”
(§3) Mice fed CD and administered H2O served as control.

liver transcriptome = format: in vivo, mice; conditions: for Pro-inflammatory signaling regulator and cytokine genes (NFKB1/2, RELB, CCR1/2/5, TLR1/2/4, TNFRSF1A/9/12, TNFα, CCL2/5) / Key genes regulating FAO (PPARα, PGC1α, ACOX1, CPT2, ACADS/M/L, HADHA/B, ACOT3/4) / TGFβ signaling and ECM remodeling pathways/genes (RNA-sequencing): NASH-diet; for Pro-inflammatory signaling regulator and cytokine genes (NFKB1/2, RELB, CCR1/2/5, TLR1/2/4, TNFRSF1A/9/12, TNFα, CCL2/5) / Key genes regulating FAO (PPARα, PGC1α, ACOX1, CPT2, ACADS/M/L, HADHA/B, ACOT3/4): RNA-sequencing; for Key genes regulating FAO (PPARα, PGC1α, ACOX1, CPT2, ACADS/M/L, HADHA/B, ACOT3/4): confirmed by qPCR and Western blot; for TGFβ signaling and ECM remodeling pathways/genes (RNA-sequencing): liver
Procedure: Library preparation and sequencing were performed by the U-M DNA Sequencing Core on a NovaSeq 6000 Sequencing System (Illumina). RNA-sequencing and pathway analyses were performed as described.
Total RNA from mouse liver samples was extracted as described above. Library preparation and sequencing were performed by the University of Michigan DNA Sequencing Core. RNA was assessed for quality using the TapeStation (Agilent, Santa Clara, Calif.). […] Samples were prepped using the NEBNext Ultra II Directional RNA Library Prep Kit for Illumina (NEB, E7760L) with Poly(A) mRNA Magnetic Isolation Module (NEB, E7490L) and NEBNext Multiplex Oligos for Illumina Unique dual (NEB, E6440L), where 10 ng-1 μg of total RNA were subjected to mRNA polyA purification. The mRNA was then fragmented and copied into first strand cDNA using reverse transciptase and dUTP mix. Samples underwent end repair and dA-Tailing step followed by ligation of NEBNext adapters. The products were purified and enriched by PCR to create the final cDNA library. Final libraries were checked for quality and quantity by TapeStation (Agilent) and qPCR using Kapa's library quantification kit for Illumina Sequencing platforms (Kapa Biosystems, KK4835). Libraries were paired-end sequenced on a […] Sequencing System (Illumina).
The quality of the raw Fastq files was checked through FastQC v0.11.8 (https://www.bioinformaties.babraham.ac.uk/projects/fastqc/). Trimmomatic v.0.35 was used to trim the low-quality reads with the parameters: SLIDINGWINDOW:4:20 MINLEN:25.12 The resulted high-quality reads were then mapped to the mouse reference genome (GRCm38.90) using HISAT2 v.2.1.0.13 Gene level quantification was performed using HTSeq-counts v0.6.0 based on the GRCm38.90 genome annotations.14 The R package DESeq2 was then used to identify significant differentially expressed genes. 15 We considered genes with adjusted P value less than 0.05 and absolute fold change larger than 2 as significant differentially expressed genes (DEGs). […] 16 The significance of the enrichment was determined by right-tailed Fisher's exact test followed by Benjamini-Hochberg multiple testing adjustment.
as §3

Compound | Plasma levels of glycine-containing tripeptide molecule, lower by ([1]; apoE−/− mice on WD) [%] | Plasma MCP1 levels ([1]; endpoint) | Total atherosclerotic plaques (en face aortic lesions, Oil Red O), reduction by (atherosclerotic lesions) | Hepatic expression of ABCG5 and ABCG8 (hepatic gene expression [2]; liver, endpoint, qPCR) | Hepatic expression of AMPKα1 and PPARα (hepatic gene expression [2]; liver, endpoint, qPCR) | Hepatic expression of PNPLA2, CPT1a, CACT, ACADI and UCP2 (hepatic gene expression [2]; liver, endpoint, qPCR) | Non-fasting blood glucose 30 min post-gavage vs pre-gavage, decreased by (blood glucose) | Acute OGTT: blood glucose at later time points (60-120 min) (blood glucose) | TGFβ-related genes (qPCR) (hepatic gene expression [3]) | Pro-inflammatory signaling regulator and cytokine genes (NFKB1/2, RELB, CCR1/2/5, TLR1/2/4, TNFRSF1A/9/12, TNFα, CCL2/5) (liver transcriptome) | Key genes regulating FAO (PPARα, PGC1α, ACOX1, CPT2, ACADS/M/L, HADHA/B, ACOT3/4) (liver transcriptome) | Time-dependent increase in plasma TC (baseline to endpoint) [1] | Endpoint plasma HDL [1] | Endpoint plasma LDL, reduced by [1] [%] | Endpoint plasma TC, reduced by [1] [%] | Plasma HDL (lipid profile) ([1]; apoE−/− mice on WD) | Plasma glycine-containing tripeptide molecule ([1]; apoE−/− mice on WD) | Hepatic expression of CCL2 (hepatic gene expression [2]) | Hepatic expression of TNFα (hepatic gene expression [2]) | Hepatic expression of key genes regulating FAO (PPARα, PNPLA2, CACT, CPT1a, ACADL) (hepatic gene expression [2]) | further results
Gly-Gly-[dL] [DT-110] | 56 | significantly reduced | 49% | significantly increased | significantly induced | significantly upregulated | 13% | significantly decreased |  |  |  |  |  |  |  |  |  |  |  |  | Hepatic GLUT1 expression (hepatic gene expression [2]; liver, endpoint, qPCR): markedly induced; Hepatic expression of LDLR (hepatic gene expression [2]; liver, endpoint, qPCR): significant upregulation
CC(C)C[C@H](N)C(=O)O [leucine] |  |  | but not in mice treated with leucine |  |  |  | trends towards increased blood glucose |  | markedly upregulated | upregulated | suppressed |  |  |  |  |  |  |  |  |  | 
NCC(=O)O [glycine, reference compound] | 53 | significantly reduced | 48% | significantly increased | significantly induced | significantly upregulated | 10% | significantly decreased |  | attenuated | reversed | significantly attenuated | 35% | 30 | 19 | reduction in HDL | reduced | downregulation | without significant changes | upregulation | Hepatic expression of genes regulating gluconeogenesis (G6pc, PCK1 and FBP1) (hepatic gene expression [2]; liver, endpoint, qPCR): no significant change; Hepatic expression of genes regulating glucose uptake (GLUT1, GLUT2 and GLUT4) (hepatic gene expression [2]; liver, endpoint, qPCR): upregulated; MCP1 expression in the liver (hepatic gene expression [2]; liver, endpoint, qPCR): suppressed; NFKB2, RELB and TNFα expression (qPCR) (hepatic gene expression [3]): significantly downregulated; TGFβ signaling and ECM remodeling pathways/genes (RNA-sequencing) (liver transcriptome): attenuated; Endpoint glucose levels, lower by (blood glucose): 41%; Acute OGTT: blood glucose 30 min after glucose with treatment (blood glucose): most significant effects
Gly-Gly-Leu [DT-109] | 62 | significantly reduced | 62% | significantly increased | significantly induced | significantly upregulated | 21% | significantly decreased | attenuated | attenuated | reversed | significantly attenuated | preserved | 38 | 25 | without the reduction in HDL | reduced | downregulation | without significant changes | upregulation | Plasma TC and LDL (lipid profile) ([1]; apoE−/− mice on WD, DT-109 1 mg/g/day, endpoint): lowest TC and LDL; NFKB2, RELB and TNFα expression (qPCR) (hepatic gene expression [3]): significantly downregulated; CCL2, CCR2 and CCR5 expression (qPCR) (hepatic gene expression [3]; 0.5 mg/g/day DT-109): downregulated; Pathway analysis, NASH-diet H2O control vs treatment (liver transcriptome; DT-109 0.5 mg/g/day): reversed NASH-diet-induced alterations in underlying pathways; TGFβ signaling and ECM remodeling pathways/genes (RNA-sequencing) (liver transcriptome): attenuated; Glucose-lowering in OGTT and in non-fasting glucose (blood glucose; apoE−/− mice on WD, after 10 weeks, DT-109 1 mg/g/day vs equivalent leucine, glycine or H2O): most potent glucose-lowering effects; Endpoint glucose levels, lower by (blood glucose): 30%; Acute OGTT: blood glucose 30 min after glucose with treatment (blood glucose): most significant effects

Source: patent US20230181673A1, “TRI-PEPTIDES AND TREATMENT OF METABOLIC, CARDIOVASCULAR AND INFLAMMATORY DISORDERS” (Diapin Therapeutics, LLC, priority 2018, published 2023)
